Row | Structure (SMILES) | melting point
1 | CCCOc1ccccc1-c1nc2nc(SC)nnc2c(=O)[nH]1 [Example 79, 3-Methylthio-8-oxo-6-(2-propoxyphenyl)-7,8-dihydropyrimido[4,5-e][1,2,4]triazine] | 247 to 249 °C
2 | CCCc1ccnc2c(=O)[nH]c(-c3cc(S(=O)(=O)N4CCC(C(=O)OCC)CC4)ccc3OCC)nc12 [Example 4, 2-[2-Ethoxy-5-(4-ethoxycarbonylpiperidinosulphonyl)phenyl]-8-n-propylpyrido[3,2-d]pyrimidin-4(3H)-one] | 204 to 205 °C
3 | CCCc1ccnc2c(=O)[nH]c(-c3cc(S(=O)(=O)NC)ccc3OCC)nc12 [Example 6, 2-[2-Ethoxy-5-(methylsulphamoyl)phenyl]-8-n-propylpyrido[3,2-d]pyrimidin-4(3H)-one] | 216 to 219 °C
4 | CCCOc1ccccc1-c1nc2nnc(SC)nc2c(=O)[nH]1 [Example 75, 5,6-Dihydro-3-methylthio-5-oxo-7-(2-propoxyphenyl)pyrimido[5,4-e][1,2,4]triazine] | 195 to 197 °C
5 | CCCc1ccnc2c(=O)[nH]c(-c3cc(S(=O)(=O)N4CCNCC4)ccc3OCC)nc12 [Example 3, 2-[2-Ethoxy-5-(1-piperazinylsulphonyl)phenyl]-8-n-propylpyrido[3,2-d]pyrimidin-4(3H)-one] | 178 to 180 °C
